One may read the IC50 as the concentration that inhibits the measured activity by half.

Common to all, as to assay type: cell-based
Holding throughout (conditions): Homo sapiens

The test system of assay [1] is CEACAM5-positive LS174T cells. The experiment in a line: Cell viability assay (Cell Titer-Glo, six days) on LS174T. As to the method: (§1) Cytotoxicity effects of the ADC on the cancer cell lines were measured by cell viability assays. Cells were seeded in a volume of 90 μL in 96-well plates the day before treatment. Test compounds (ADCs or free payloads) were formulated at 10-fold the starting concentration in cell culture medium. Test compounds were serial diluted (1:4) and 10 μL of each dilution was added to the cells in triplicates. Plates were cultured at 37° C. in a CO2 incubator for six days. For cell viability measurement, Cell Titer-Glo® reagent (Promega™ Corp, Madison, WI) was added to each well, and plates processed according to the manufacturer's instructions. Luminescence signals were measured using a Varioskan plate reader (Thermo Fisher). Luminescence readings were converted to % viability relative to untreated cells. Data was fitted with non-linear regression analysis, using log (inhibitor) vs. response, variable slope, 4-parameter fit equation using Genedata Screener or GraphPad Prism. Data is shown as % relative cell viability vs. molar compound concentration, error bars indicating standard deviation (SD) of duplicates or triplicates. Geometric mean values of IC50s derived from multiple experiments were calculated.
(In general: Cellular ATP, detected with luciferase, serves as a proxy for viable cell number.)

The test system of assay [2] is CEACAM5-positive SK-CO-1 cells. Briefly: Cell viability assay (Cell Titer-Glo, six days) on SK-CO-1. As to the method: as §1
(§2) A fold reduction in IC50, defined as a S[…], was calculated by dividing the IC50 against CEACAM5-negative MDA-MB-231 cells by the IC50 against each CEACAM5-positive cell line (see Table 6). […]

Assay [3] has as its system CEACAM5-negative MDA-MB-231 cells. The experiment in a line: Cell viability assay (Cell Titer-Glo, six days) on MDA-MB-231. The protocol: as §1, §2
Assay [4] relates to CEACAM5-positive SNU-16 cells. The experiment in a line: Cell viability assay (Cell Titer-Glo, six days) on SNU-16. The protocol: as §1, §2
Assay [5] deals with CEACAM5-positive MKN-45 cells. Briefly: Cell viability assay (Cell Titer-Glo, six days) on MKN-45. The protocol:
as §1, §2

Consider `CC[C@@]1(O)C(=O)OCc2c1cc1n(c2=O)Cc2c-1nc1cc(F)c(C)c3c1c2[C@@H](N)CC3` [Payload, (1S,9S)-1-Amino-9-ethyl-5-fluoro-1,2,3,9,12,15-hexahydro-9-hydroxy-4-methyl-10H, 13H-benzo (de) pyrano (3′,4′: 6,7) indolizino (1,2-b) quinoline-10,13-dione], for which the IC50 in assay [1] (144 h, read-out: LS174T IC50 [M], n ≥ 2, CEACAM5 positive, six days, geometric mean) was 3e-10 M; in assay [2] (144 h, read-out: SK-CO-1 IC50 [M], n ≥ 2, SK-CO-1, CEACAM5 positive, six days, geometric mean), 2.2e-10 M; in assay [3] (144 h, read-out: MDA-MB-231 IC50 [M], n ≥ 3, MDA-MB-231, CEACAM5 negative, six days, n/a = below −50% effect cut-off) it was 6e-10 M; in assay [4] (144 h, read-out: SNU-16 IC50 [M], n ≥ 2, SNU-16, CEACAM5 positive, six days, geometric mean), 2.9e-10 M; in assay [5] (144 h, read-out: MKN-45 IC50 [M], n ≥ 2, MKN-45, CEACAM5 positive, six days, geometric mean), 6.6e-10 M. In addition, the Emax is -91% in assay [1] (at the highest tested compound concentration, read-out: Maximal effect compared to untreated controls, LS174T); -97% in assay [2] (SK-CO-1, at the highest tested compound concentration, read-out: Maximal effect compared to untreated controls, SK-CO-1); -91% in assay [3] (MDA-MB-231, at the highest tested compound concentration, read-out: Maximal effect compared to untreated controls, MDA-MB-231); -99% in assay [4] (SNU-16, at the highest tested compound concentration, read-out: Maximal effect compared to untreated controls, SNU-16); -100% in assay [5] (MKN-45, at the highest tested compound concentration, read-out: Maximal effect compared to untreated controls, MKN-45).

For the origin of these results see patent US20250170268A1, “METHODS AND TOOLS FOR CONJUGATION TO ANTIBODIES” (priority 2022, published 2025).
